Data: patent publication US7973219B2, “Method for producing transgenic plants resistant to weed control compounds which disrupt the porphyrin pathways of plants” (Sumitomo Chemical Company, Limited, priority 1998, dated 2011)

Columns and labels:
Type in all cases: cell-based, Escherichia coli
[1] = tested on: E. coli BT3/pACYCSP+pTCHLH1 strain; experiment: Growth of E. coli BT3/pACYCSP+pTCHLH1 (variant tobacco chelatase subunit) with herbicidal compound; conditions: 18 hours culture, Table 6
Source text: (§1) According to the description of Gibson, L. C. D. et al., Proc. Natl. Acad. Sci. USA, 92; p 1941 (1995), the DNA fragment containing bchH gene prepared in Example 1 was digested with the restriction enzymes NdeI and BglII. The resultant DNA fragment was inserted between NdeI restriction site and BamHI restriction site of expression vector pET11a (manufactured by Stratagene) to obtain plasmid pETBCH (FIG. 1). This plasmid pETBCH was introduced into E. coli BL21(DE3) strain competent cells (manufactured by Stratagene) according to the manual attached to the competent cells to obtain E. coli BL21(DE3)/pETBCH strain. The strain was inoculated into 1.5 ml LB liquid culture medium (1% tryptone, 0.5% yeast extract, 0.5% NaCl) containing 100 μg/ml ampicillin in a tube (14×10 mm), and the tube was covered with aluminum foil (hereinafter referred to as dark conditions), cultured with shaking at 37° C. under light of fluorescent lamp (about 8000 lux). When the absorbance at 600 nm of the liquid culture medium became about 0.6, isopropyl β-D-thiogalactopyranoside (IPTG) was added to the liquid culture medium so that the final concentration was 0.4 mM, and the culture was continued for about additional 20 hours. […] In contrast to this, when E. coli BL21(DE3)/pETBCH strain was cultured according to the same manner (with IPTG) except that the tube was not covered with aluminum foil (hereinafter referred to as light conditions), E. coli grew and turned red as above.
The plasmid pTCHLH1 and pCR2.1 prepared in Example 7 were introduced into E. coli BT3/pACYCSP strain prepared in Example 3, respectively according to the method described in Hanahan, D. J., Mol. Biol., 166; p 557 (1983). E. coli BT3/pACYCSP+pTCHLH1 strain bearing plasmids pACYCSP and pTCHLH1, and E. coli BT3/pACYCSP+pCR2.1 strain bearing plasmids pACYCSP and pCR2.1 were obtained by culturing the above strains in YPT medium containing 100 μg/ml ampicillin, 15 μg/ml chloramphenicol and 50 μg/ml kanamycin, respectively.
(§2) These E. coli strains were inoculated into YPT medium containing 10 or 1 ppm of the PPO inhibitory-type herbicidal compound represented by Structure 8, 100 μg/ml ampicillin, 15 μg/ml chloramphenicol, 50 μg/ml kanamycin, 10 μg/ml hemin and 50 μg/ml aminolevulinic acid, cultured under dark conditions or light conditions according to the same manner as in Example 2. Then, 18 hours after initiation of culture, the absorbance of the liquid culture medium was measured at 600 nm. By taking the absorbance of the medium without the herbicidal compound as 1, the relative value of the absorbance of the medium containing the herbicidal compound was calculated.

[2] = tested on: E. coli BT3/pACYCSP+pTVGMP strain; experiment: Growth of E. coli BT3/pACYCSP+pTVGMP (variant soybean PPO) with herbicidal compound; conditions: 18 hours culture, Table 7
Source text: as §1
Plasmids pTVGMP and pTV118N prepared in Example 11 were introduced into E. coli BT3/pACYCSP strain prepared in Example 3 respectively according to the method described in Flanahan, D. J., Mol. Biol., 166; p 557 (1983). E. coli BT3/pACYCSP+pTVGMP strain bearing plasmids pACYCSP and pTVGMP, and E. coli BT3/pACYCSP+pTV118N strain bearing plasmids pACYCSP and pTV118N were obtained by culturing the above strains in YPT medium containing 100 μg/ml ampicillin, 15 μg/ml chloramphenicol and 10 μg/ml kanamycin.
as §2, with “ppm of PPO inhibitory-type” for “ppm of the PPO inhibitory-type”, “8, 100 (ig/ml ampicillin, 15” for “8, 100 μg/ml ampicillin, 15”, “μg/ml chloramphenicol, 10 μg/ml kanamycin,” for “μg/ml chloramphenicol, 50 μg/ml kanamycin,”, “absorbance of liquid culture” for “absorbance of the liquid culture”

[3] = tested on: E. coli BT3/pACYCSP+pHASYS strain; experiment: Growth of E. coli BT3/pACYCSP+pHASYS with herbicidal compound; conditions: 1 ppm, 18 hours culture, Table 15
Source text: According to the description of Gibson, L. C. D. et al., Proc. Natl. Acad. Sci. USA, 92; p 1941 (1995), the DNA fragment containing bchH gene prepared in Example 1 was digested with the restriction enzymes NdeI and BglII. The resultant DNA fragment was inserted between NdeI restriction site and BamHI restriction site of expression vector pET11a (manufactured by Stratagene) to obtain plasmid pETBCH (FIG. 1). This plasmid pETBCH was introduced into E. coli BL21(DE3) strain competent cells (manufactured by Stratagene) according to the manual attached to the competent cells to obtain E. coli BL21(DE3)/pETBCH strain. The strain was inoculated into 1.5 ml LB liquid culture medium (1% tryptone, 0.5% yeast extract, 0.5% NaCl) containing 100 μg/ml ampicillin in a tube (14×10 mm), and the tube was covered with aluminum foil (hereinafter referred to as dark conditions), cultured with shaking at 37° C. under light of fluorescent lamp (about 8000 lux). When the absorbance at 600 nm of the liquid culture medium became about 0.6, isopropyl β-D-thiogalactopyranoside (IPTG) was added to the liquid culture medium so that the final concentration was 0.4 mM, and the culture was continued for about additional 20 hours. […]

C#CCOc1cc(N2C(=O)C3=C(CCCC3)C2=O)c(F)cc1Cl [Structure 8]
Relative absorbance ([1]; in the dark, 1 ppm): 0.93
Relative absorbance ([1]; in the dark, 10 ppm): 0.92
Relative absorbance ([1]; in the light, 1 ppm): 0.89
Relative absorbance ([1]; in the light, 10 ppm): 0.69
Relative absorbance ([2]; in the dark, 1 ppm): 0.94
Relative absorbance ([2]; in the dark, 10 ppm): 0.91
Relative absorbance ([2]; in the light, 1 ppm): 0.85
Relative absorbance ([2]; in the light, 10 ppm): 0.33
Relative absorbance ([3]; in the dark): 0.96
Relative absorbance ([3]; in the light): 0.65
